Results: patent US7381433B1, “Compositions containing an extract of a primula denticulata and use thereof” (Johnson & Johnson Consumer Companies, Inc., priority 2007, dated 2008)

System: sebocytes
Assay: In vitro sebocyte lipogenesis assay (Nile red lipid accumulation)
Assay type: cell-based, human

SMILES: CCCCCC1=CC(=O)C=C(OC)C1=O [Primin, 2-methoxy-6-pentyl-1,4-benzoquinone]
- Induction of lipogenesis (Primin concentration 0.3 μg/mL): 17.9%
- Induction of lipogenesis (Primin concentration 1.0 μg/mL): 21.3%
- Induction of lipogenesis (Primin concentration 3.0 μg/mL): 41.5%
- Effect on lipogenesis in sebocytes (in words) (summary of Tables 1 and 2): has lipogenic activity
